ChEMBL document CHEMBL6078709, “Discovery of Cyclic Lipopeptides, Octaminomycins C and D, by Engineering LysR Transcriptional Regulator of Streptomyces sp” (J Nat Prod, 2024)
Positions of bridges follow the written chain, without caps; N, C: chain ends. Non-standard residues stand in square brackets, D forms with d. Residues, ends and D or L forms follow the SMILES beside them. *: point of attachment. NMeY = CN[C@@H](Cc1ccc(O)cc1)C(=O)O; Propionyl = CCC(=O)*

Experiments:
Format in all cases: functional, cell-based
[1] = test system: A549; experiment: Antiproliferative activity against human A549 cells assessed as inhibition of cell growth incubated for 72 hrs by sulforhodamine B assay; details: A549, 72 h
[2] = test system: HCT-116; experiment: Antiproliferative activity against human HCT-116 cells assessed as inhibition of cell growth incubated for 72 hrs by sulforhodamine B assay; details: HCT-116, 72 h
[3] = test system: HUVEC; experiment: Antiangiogenic activity in human HUVEC cells assessed as inhibition of VEGF-induced tube formation incubated for 6 hrs by matrigel based inverted microscopic analysis
[4] = test system: SK-HEP1; experiment: Antiproliferative activity against human SK-HEP1 cells assessed as inhibition of cell growth incubated for 72 hrs by sulforhodamine B assay; details: SK-HEP1, 72 h
[5] = test system: MDA-MB-231; experiment: Antiproliferative activity against human MDA-MB-231 cells assessed as inhibition of cell growth incubated for 72 hrs by sulforhodamine B assay; details: MDA-MB-231, 72 h
[6] = test system: SNU-638; experiment: Antiproliferative activity against human SNU-638 cells assessed as inhibition of cell growth incubated for 72 hrs by sulforhodamine B assay; details: SNU-638, 72 h

Row | IC50 [1] | IC50 [2] | IC50 [4] | IC50 [5] | IC50 [6] | Structure (SMILES) | IC50 [3]
1 | 12.3 µM | > 20 µM | 13.1 µM | 12 µM | > 20 µM | CCC(=O)N[C@@H]1C(=O)N[C@@H](Cc2ccccc2)C(=O)N[C@H](CC(C)C)C(=O)N[C@@H](C(C)C)C(=O)N2CCC[C@H]2C(=O)N[C@@H](CC(C)C)C(=O)N(C)[C@@H](Cc2ccccc2)C(=O)N2CCC[C@H]2C(=O)O[C@@H]1C | > 40 µM
2 | > 20 µM | > 20 µM | > 20 µM | > 20 µM | > 20 µM | CCC(=O)N[C@@H]1C(=O)N[C@@H](Cc2ccccc2)C(=O)N[C@H](CC(C)C)C(=O)N[C@@H](C(C)C)C(=O)N2CCC[C@H]2C(=O)N[C@@H](CC(C)C)C(=O)N(C)[C@@H](Cc2ccc(O)cc2)C(=O)N2CCC[C@H]2C(=O)O[C@@H]1C (Propionyl-TF[dL]VPL[NMeY]P; ester 1-C) | > 40 µM
3 | > 20 µM | > 20 µM | 19 µM | > 20 µM | 16.8 µM | CC(=O)N[C@@H]1C(=O)N[C@@H](Cc2ccccc2)C(=O)N[C@H](CC(C)C)C(=O)N[C@@H](C(C)C)C(=O)N2CCC[C@H]2C(=O)N[C@@H](CC(C)C)C(=O)N(C)[C@@H](Cc2ccc(O)cc2)C(=O)N2CCC[C@H]2C(=O)O[C@@H]1C (Ac-TF[dL]VPL[NMeY]P; ester 1-C) | 28 µM
4 | 15.5 µM | > 20 µM | 17.4 µM | > 20 µM | 17.2 µM | CCC(=O)N[C@@H]1C(=O)N[C@@H](Cc2ccccc2)C(=O)N[C@H](CC(C)C)C(=O)N[C@@H](C(C)C)C(=O)N2CCC[C@H]2C(=O)N[C@@H](CC(C)C)C(=O)N(C)[C@@H](Cc2ccc(O)cc2)C(=O)N2CCCC[C@H]2C(=O)O[C@@H]1C | > 40 µM
5 |  |  |  |  |  | CCN(CC)CCNC(=O)c1c(C)[nH]c(/C=C2\C(=O)Nc3ccc(F)cc32)c1C [SUNITINIB] | 3.5 µM
6 | 2.73 µM | 3.16 µM | 3.78 µM | 2.43 µM | 1.96 µM | COc1cc([C@@H]2c3cc4c(cc3[C@@H](O[C@@H]3O[C@@H]5CO[C@@H](C)O[C@H]5[C@H](O)[C@H]3O)[C@H]3COC(=O)[C@H]23)OCO4)cc(OC)c1O [ETOPOSIDE] | 
